# Experimental data reported in patent EP3436445B1, “HISTONE DEMETHYLASE INHIBITORS” (Celgene Quanticel Research, Inc., priority 2016, dated 2017).
# Target: T1, JMJD2C (Homo sapiens, UniProt Q9H3R0)
# T1 construct: purchased BPS Bioscience 50105
# T1 sequence (Q9H3R0 2-372): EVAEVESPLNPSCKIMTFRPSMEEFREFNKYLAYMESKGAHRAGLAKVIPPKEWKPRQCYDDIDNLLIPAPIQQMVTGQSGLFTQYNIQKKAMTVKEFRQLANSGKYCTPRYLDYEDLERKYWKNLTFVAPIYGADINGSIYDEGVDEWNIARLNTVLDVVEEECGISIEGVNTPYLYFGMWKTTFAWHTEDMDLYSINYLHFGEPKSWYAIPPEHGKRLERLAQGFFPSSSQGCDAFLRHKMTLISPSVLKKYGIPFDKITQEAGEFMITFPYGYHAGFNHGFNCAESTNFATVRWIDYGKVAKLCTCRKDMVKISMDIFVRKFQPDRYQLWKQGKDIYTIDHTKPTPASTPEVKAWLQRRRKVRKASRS
# Test: JMJD2C in vitro enzyme inhibition assay (TR-FRET)
# Type: biochemical
# Settings: Table 5; 0.3 nM JMJD2C, H3K9me3-biotin labeled peptide
# Source text: This assay determines the ability of a test compound to inhibit Jarid1B, JMJD2C and JMJD3 demethylase activity. Baculovirus expressed Jarid1B (GenBank Accession #NM-006618, AA 2-751) was purchased from BPS Bioscience (Cat #50121) or custom made by MolecularThroughput. Baculovirus expressed JMJD2C (GenBank Accession #BC143571, AA 2-372) was purchased from BPS Bioscience (Cat#50105). Baculovirus expressed JMJD3 (GenBank Accession #NM-001080424, AA1043-end) was purchased from BPS Bioscience (Cat#50115).
# The ability of test compounds to inhibit the activity of JMJD2C was determined in 384-well plate format under the following reaction conditions: 0.3 nM JMJD2C, 300 nM H3K9me3-biotin labeled peptide (Anaspec cat #64360), 2 µM alpha-ketoglutaric acid in assay buffer of 50 mM HEPES, pH7.3, 0.005% Brij35, 0.5 mM TCEP, 0.2 mg/ml BSA, 50 µM sodium L-ascorbate, and 2 µM ammonium iron(II) sulfate. Reaction product was determined quantitatively by TR-FRET after the addition of detection reagent Phycolink Streptavidin-allophycocyanin (Prozyme) and Europium-anti-di-methylated histone H3 lysine 9 (H3K9me2) antibody (PerkinElmer) in the presence of 5 mM EDTA in LANCE detection buffer (PerkinElmer) at a final concentration of 50 nM and 1 nM, respectively.
# The assay reaction was initiated by the following: 2 µl of the mixture of 900 nM H3K9me3-biotin labeled peptide and 6 µM alpha-ketoglutaric acid with 2 µl of 11-point serial diluted inhibitor in 3% DMSO were added to each well of the plate, followed by the addition of 2 µl of 0.9 nM JMJD2C to initiate the reaction. The reaction mixture was incubated at room temperature for 30 minutes, and terminated by the addition of 6 µl of 5 mM EDTA in LANCE detection buffer containing 100 nM Phycolink Streptavidin-allophycocyanin and 2 nM Europium-anti-H3K9me2 antibody. Plates were read by EnVisionMultilabel Reader in TR-FRET mode (excitation at 320 nm, emission at 615 nm and 665 nm) after 1 hour incubation at room temperature. A ratio was calculated (665/615) for each well and fitted to determine inhibition constant (IC50).
row,SMILES,IC50
1,"Fc1cccc2c1CCCC2Cn1cnc(-c2cc(-c3nn[nH]c3C(F)(F)F)ccn2)c1 (stereo not shown) [Example 99, 2-{1-[(5-fluoro-1,2,3,4-tetrahydronaphthalen-1-yl)methyl]-1H-imidazol-4-yl}-4-[5-(trifluoromethyl)-1H-1,2,3-triazol-4-yl]pyridine]",> 10 µM
2,"Cc1ccc2c(c1)CCCC2Cn1cnc(-c2cc(-c3nn[nH]c3C(F)(F)F)ccn2)c1 (stereo not shown) [Example 102, 2-{1-[(6-methyl-1,2,3,4-tetrahydronaphthalen-1-yl)methyl]-1H-imidazol-4-yl}-4-[5-(trifluoromethyl)-1H-1,2,3-triazol-4-yl]pyridine]",> 10 µM
3,"FC(F)(F)COc1ccccc1Cn1cnc(-c2cc(-c3nn[nH]c3C(F)(F)F)ccn2)c1 [Example 76, 2-(1-{[2-(2,2,2-trifluoroethoxy)phenyl]methyl}-1H-imidazol-4-yl)-4-[5-(trifluoromethyl)-1H-1,2,3-triazol-4-yl]pyridine]",> 10 µM
4,Fc1ccc(CCn2cnc(-c3cc(-c4nn[nH]c4C(F)(F)F)ccn3)c2)cc1 [Example 77],> 10 µM
5,"FC(F)(F)c1[nH]nnc1-c1ccnc(-c2cn(Cc3ccccc3)cn2)c1 [Example 72, 2-(1-benzyl-1H-imidazol-4-yl)-4-[5-(trifluoromethyl)-1H-1,2,3-triazol-4-yl]pyridine]",> 10 µM
6,"CC(c1ccccc1)n1cnc(-c2cc(-c3nn[nH]c3C(F)(F)F)ccn2)c1 (stereo not shown) [Example 73, 2-[1-(1-phenylethyl)-1H-imidazol-4-yl]-4-[5-(trifluoromethyl)-1H-1,2,3-triazol-4-yl]pyridine]",> 10 µM
7,"Fc1cccc(CCn2cnc(-c3cc(-c4nn[nH]c4C(F)(F)F)ccn3)c2)c1F [Example 79, 2-{1-[2-(2,3-difluorophenyl)ethyl]-1H-imidazol-4-yl}-4-[5-(trifluoromethyl)-1H-1,2,3-triazol-4-yl]pyridine]",> 10 µM
8,"COc1ccc2c(c1)C(Cn1cnc(-c3cc(-c4nn[nH]c4C(F)(F)F)ccn3)c1)CCC2 (stereo not shown) [Example 106, 2-{1-[(7-methoxy-1,2,3,4-tetrahydronaphthalen-1-yl)methyl]-1H-imidazol-4-yl}-4-[5-(trifluoromethyl)-1H-1,2,3-triazol-4-yl]pyridine]",> 10 µM
9,"Fc1ccc(CCn2cnc(-c3cc(-c4nn[nH]c4C(F)(F)F)ccn3)c2)c(F)c1 [Example 86, 2-{1-[2-(2,4-difluorophenyl)ethyl]-1H-imidazol-4-yl}-4-[5-(trifluoromethyl)-1H-1,2,3-triazol-4-yl]pyridine]",> 10 µM
10,"Fc1cccc(F)c1CCn1cnc(-c2cc(-c3nn[nH]c3C(F)(F)F)ccn2)c1 [Example 87, 2-{1-[2-(2,6-difluorophenyl)ethyl]-1H-imidazol-4-yl}-4-[5-(trifluoromethyl)-1H-1,2,3-triazol-4-yl]pyridine]",> 10 µM
11,"FC(F)(F)c1ccc(CCn2cnc(-c3cc(-c4nn[nH]c4C(F)(F)F)ccn3)c2)cc1 [Example 94, 4-[5-(trifluoromethyl)-1H-1,2,3-triazol-4-yl]-2-(1-{2-[4-(trifluoromethyl)phenyl]ethyl}-1H-imidazol-4-yl)pyridine]",> 10 µM
12,"Fc1ccc2c(c1)C(Cn1cnc(-c3cc(-c4nn[nH]c4C(F)(F)F)ccn3)c1)CCC2 (stereo not shown) [Example 101, 2-{1-[(7-fluoro-1,2,3,4-tetrahydronaphthalen-1-yl)methyl]-1H-imidazol-4-yl}-4-[5-(trifluoromethyl)-1H-1,2,3-triazol-4-yl]pyridine]",> 10 µM
13,"Cc1ccc(Cn2cnc(-c3cc(-c4nn[nH]c4C(F)(F)F)ccn3)c2)cc1 [Example 65, 2-{1-[(4-methylphenyl)methyl]-1H-imidazol-4-yl}-4-[5-(trifluoromethyl)-1H-1,2,3-triazol-4-yl]pyridine]",> 10 µM
14,"FC(F)(F)c1[nH]nnc1-c1ccnc(-c2cn(CCc3ccc(Cl)cc3)cn2)c1 [Example 92, 2-{1-[2-(4-chlorophenyl)ethyl]-1H-imidazol-4-yl}-4-[5-(trifluoromethyl)-1H-1,2,3-triazol-4-yl]pyridine]",> 10 µM
15,"Fc1cccc(F)c1Cn1cnc(-c2cc(-c3nn[nH]c3C(F)(F)F)ccn2)c1 [Example 69, 2-{1-[(2,6-difluorophenyl)methyl]-1H-imidazol-4-yl}-4-[5-(trifluoromethyl)-1H-1,2,3-triazol-4-yl]pyridine]",> 10 µM
16,"Fc1ccc2c(c1)CCCC2Cn1cnc(-c2cc(-c3nn[nH]c3C(F)(F)F)ccn2)c1 (stereo not shown) [Example 100, 2-{1-[(6-fluoro-1,2,3,4-tetrahydronaphthalen-1-yl)methyl]-1H-imidazol-4-yl}-4-[5-(trifluoromethyl)-1H-1,2,3-triazol-4-yl]pyridine]",> 10 µM
17,"Fc1ccccc1Cn1cnc(-c2cc(-c3nn[nH]c3C(F)(F)F)ccn2)c1 [Example 62, 2-{1-[(2-fluoroprtenyl)methyl]-1H-imidazol-4-yl}-4-[5-(trifluoromethyl)-1H-1,2,3-triazol-4-yl]pyridine]",> 10 µM
18,"Cc1ccccc1Cn1cnc(-c2cc(-c3nn[nH]c3C(F)(F)F)ccn2)c1 [Example 66, 2-{1-[(2-methylphenyl)methyl]-1H-imidazol-4-yl}-4-[5-(trifluoromethyl)-1H-1,2,3-triazol-4-yl]pyridine]",> 10 µM
19,"COc1ccc(Cn2cnc(-c3cc(-c4nn[nH]c4C(F)(F)F)ccn3)c2)cc1 [Example 67, 2-{1-[(4-methoxyphenyl)methyl]-1H-imidazol-4-yl}-4-[5-(trifluoromethyl)-1H-1,2,3-triazol-4-yl]pyridine]",1 to 10 µM
20,"FC(F)(F)c1[nH]nnc1-c1ccnc(-c2cn(CC3CCOc4ccccc43)cn2)c1 (stereo not shown) [Example 98, 2-{1-[(3,4-dihydro-2H-1-benzopyran-4-yl)methyl]-1H-imidazol-4-yl}-4-[5-(trifluoromethyl)-1H-1,2,3-triazol-4-yl]pyridine]",> 10 µM
21,"CCC(c1ccccc1)n1cnc(-c2cc(-c3nn[nH]c3C(F)(F)F)ccn2)c1 (stereo not shown) [Example 74, 2-[1-(1-phenylpropyl)-1H-imidazol-4-yl]-4-[5-(trifluoromethyl)-1H-1,2,3-triazol-4-yl]pyridine]",> 10 µM
22,"Cc1cc(F)ccc1Cn1cnc(-c2cc(-c3nn[nH]c3C(F)(F)F)ccn2)c1 [Example 70, 2-{1-[(4-fluoro-2-methylphenyl)methyl]-1H-imidazol-4-yl}-4-[5-(trifluoromethyl)-1H-1,2,3-triazol-4-yl]pyridine]",> 10 µM
23,"O=C(c1ccccc1)N1CCC[C@H](n2cnc(-c3cc(-c4nn[nH]c4C(F)(F)F)ccn3)c2)C1 [Example 90, 2-{1-[(3S)-1-benzoylpiperidin-3-yl]-1H-imidazol-4-yl}-4-[5-(trifluoromethyl)-1H-1,2,3-triazol-4-yl]pyridine]",> 10 µM
24,"COc1cccc2c1CCCC2Cn1cnc(-c2cc(-c3nn[nH]c3C(F)(F)F)ccn2)c1 (stereo not shown) [Example 104, 2-{1-[(5-methoxy-1,2,3,4-tetrahydronaphthalen-1-yl)methyl]-1H-imidazol-4-yl}-4-[5-(trifluoromethyl)-1H-1,2,3-triazol-4-yl]pyridine]",> 10 µM
25,"FC(F)(F)c1[nH]nnc1-c1ccnc(-c2cn(Cc3ccccc3Cl)cn2)c1 [Example 64, 2-{1-[(2-chlorophenyl)methyl]-1H-imidazol-4-yl}-4-[5-(trifluoromethyl)-1H-1,2,3-triazol-4-yl]pyridine]",> 10 µM
26,"O=C(c1ccccc1)N1CCC[C@@H](n2cnc(-c3cc(-c4nn[nH]c4C(F)(F)F)ccn3)c2)C1 [Example 89, 2-{1-[(3R)-1-benzoylpiperidin-3-yl]-1H-imidazol-4-yl}-4-[5-(trifluoromethyl)-1H-1,2,3-triazol-4-yl]pyridine]",> 10 µM
27,"Fc1ccc(F)c(CCn2cnc(-c3cc(-c4nn[nH]c4C(F)(F)F)ccn3)c2)c1 [Example 88, 2-{1-[2-(2,5-difluorophenyl)ethyl]-1H-imidazol-4-yl}-4-[5-(trifluoromethyl)-1H-1,2,3-triazol-4-yl]pyridine]",> 10 µM
28,"Fc1ccccc1CCn1cnc(-c2cc(-c3nn[nH]c3C(F)(F)F)ccn2)c1 [Example 84, 2-{1-[2-(2-fluorophenyl)ethyl]-1H-imidazol-4-yl}-4-[5-(trifluoromethyl)-1H-1,2,3-triazol-4-yl]pyridine]",> 10 µM
